Measurements as given in patent US20170370933A1, “METHODS AND COMPOSITIONS FOR IMMUNOMODULATION” (Nodality, Inc., priority 2013, published 2017).
Entries after “also recorded” stand apart in the source; their conditions may differ.

What was measured:
[1] = system: immune signaling pathways in PBMC subsets; assay: SCNP of PBMC from melanoma patients pre- and post-ipilimumab treatment; assay type: in vivo, human; conditions: for IL-15→p-STAT5 signaling in post-treatment samples: CD4− T cells, vs healthy and untreated donor samples
Method: Methods: 3 healthy and 13 melanoma patient cryopreserved samples, including 7 collected pre-treatment, and 6 collected post-treatment, were analyzed by SCNP. […] Cells were assessed for viability, cell subset frequencies and signaling in response to different modulators. A node is defined as combination of modulator and intracellular readout (e.g. IL-6→p-STAT3). Cytokine and TCR- or Fc[…]R-induced activation of STAT1, 3, 5, CD3 □ and Erk was evaluated in multiple immune cell populations and comparisons made based on disease, treatment time point and clinical responses.

[2] = system: CTLA-4 interaction with CD80/86 in T cells; assay: in vitro T cell activation on αCD3-coated plate with ipilimumab, 48 hr; assay type: cell-based; conditions: PBMCs on αCD3-coated plate, vs isotype control
Method: In this example, PBMCs were added to a αCD3-coated plate to induce T cell activation, then ipilimumab was added to block CTLA-4 interaction with CD80/86. Isotype control was added to a reference well. The cells were incubated at 37° C. for 48 hr, then fixed, permeabilized, stained, and data acquired as described in the Examples above. Cells were gated by CD3, CD4, and CD8, and the readouts were IL-2, TNF-α, Cyclin A2, and CTLA-4. Ipilimumab augmented CTLA-4 upregulation, cytokine production, and proliferation.

[3] = system: metastatic melanoma; conditions: ipilimumab alone compared to gp100 vaccine alone; previously treated metastatic melanoma; p=0.003; cited from earlier work
[4] = system: p-STAT1, p-STAT3, p-STAT5 in whole blood cell subsets; assay: SCNP of cytokine-induced JAK/STAT signaling in whole blood of healthy donors; assay type: cell-based, human
Method: Method: Whole blood from 11 healthy donors (20-65 yrs, 7 males, 4 females, 8 Caucasians, 2 Hispanics, 1 East Asian) was stimulated at 37° C. in 96-well plates with a low, medium, and high dose of GM-CSF, IFN-α, IL-27 and IL-6, each added separately, as described in Example 5. For each dose, a stimulation time course was run with 6 time points between 3 and 45 minutes. […] The SCNP assay was performed using a fluorophore-labeled antibody cocktail to simultaneously measure signaling in six distinct cell populations, including: neutrophils, CD20+ B cells, CD3+CD4+ T cells, CD3+CD4− T cells (CD8 enriched), CD3−CD20− lymphocytes (NK cell enriched), and CD14+ monocytes. The median fluorescent intensity of phospho (p)-STAT1(Y701), p-STAT3(Y705), and p-STAT5(Y694) were measured in each defined cell population for each experimental condition.
Kinetic response to varying concentrations of modulators was investigated in normal samples (i.e. samples from persons who have no diagnosis of disease). 11 normal samples were donated with informed consent by Nodality Inc. employees and processed at Nodality Inc. in South San Francisco, Calif. The samples were treated with 4 different modulators (GM-CSF, IL-27, IFNa and IL-6) at 4 different concentrations of the modulator and activation levels of pStat1, pStat3 and pStat5 were measured at different time points. Activation levels were measured at 3, 5, 10, 15, 30 and 45 minutes using flow cytometry-based single cell network profiling. The concentrations of the stimulators are tabulated below:
Activation levels of different cell surface markers were also profiled using single cell network profiling and used in conjunction with gating to segregate the cells into discrete cell populations. In the gating analysis, SSC-A and FSC-A were first used to segregate lymphocytes from non-lymphocytes. CD14 and CD4 were then used to segregate the non-lymphocytes into populations of neutrophils and CD14+ cells (monocytes). CD3 and CD20 were then used to segregate the lymphocytes into populations of CD20+(B Cells), CD3+(T Cells) and CD20-CD3-cells. CD4 was used to segregate the CD3+ T cells into populations of CD3+CD4- and CD3+CD4+ T cells.

[5] = system: p-Stat1, p-Stat3, p-Stat4, p-Stat5, p-Stat6, p-p38 in PBMC subsets; assay: SCNP of IFN-α signaling in PBMC from healthy donors; assay type: cell-based, human
Method: Methods: IFN-α-mediated signaling responses were measured by SCNP in PBMC samples from 12 healthy donors. PBMCs were processed for flow cytometry by fixation and permeabilization followed by incubation with fluorochrome-conjugated antibodies that recognize extracellular lineage markers and intracellular signaling molecules. The levels of several phospho-proteins (p-Stat1, p-Stat3, p-Stat4, p-Stat5, p-Stat6, and p-p38) were measured in multiple cell populations (CD14+ monocytes, CD20+ B cells, CD4+CD3+ T cells, and CD4−CD3+ T cells) at 15 minutes, 1, 2 and 4 hours post IFN-α exposure as described in Example 6.

[6] = system: TCR→p-ERK/p-AKT in T cells; assay: in vitro Keytruda effect on TCR signaling in PBMC of breast cancer patients and healthy donors; assay type: cell-based, human
Method: (§1) In this Example, samples of peripheral blood mononuclear cells (PBMCs) from breast cancer patients and from healthy donors were analyzed for IMR expression and by single cell network profiling, both modulated and unmodulated. Samples were taken before and after treatment in the breast cancer patients. IMR expression was profiled and correlated with immune signaling; differences in immune signaling by SCNP in pre- and post-treatment samples was investigated; the in vitro effects of immune checkpoint inhibitors on signaling in pre- and post-treatment samples was investigated; and the in vitro effects of Fresolimumab on TGFb modulated signaling in pre-treatment samples was profiled.
PBMC samples were collected from 7 healthy donors and 15 breast cancer patients enrolled in a clinical study NCT01401062, evaluating Fresolimumab (anti-TGF □) at 1 or 10 mg/kg IV in combination with radiotherapy (RT). Samples were cryopreserved then prepped and analyzed. Breast cancer donor samples were pre- and post-treatment. Basal expression of immunomodulatory receptors (IMRs) and short term signaling in response to modulation were profiled. […]
In addition, T cell receptor (TCR) signaling was studied using SCNP. The TCR was stimulated, as described elsewhere herein, and downstream readouts, in particular, p-ERK and p-AKT, p-PLCg2, p-CD3z, p-s6, and IkB were measured.

[7] = system: TGFb modulated signaling; assay: in vitro Fresolimumab on TGFb modulated signaling in breast cancer samples; assay type: cell-based, human
Method: as §1

[8] = system: breast cancer patients; assay: clinical study NCT01401062, Fresolimumab with radiotherapy in breast cancer: PBMC IMR expression, signaling, response; assay type: in vivo, human
Method: PBMC samples were collected from 7 healthy donors and 15 breast cancer patients enrolled in a clinical study NCT01401062, evaluating Fresolimumab (anti-TGF □) at 1 or 10 mg/kg IV in combination with radiotherapy (RT). Samples were cryopreserved then prepped and analyzed. Breast cancer donor samples were pre- and post-treatment. Basal expression of immunomodulatory receptors (IMRs) and short term signaling in response to modulation were profiled. Signaling following exposure to in vitro chemotherapeutic agents was also examined. Response to therapy in this trial was poor and therefore associations with clinical reponse was observational only.
Analysis of IMR expression and SCNP (modulated and unmodulated) was performed as detailed in previous Examples and in the specification.

[9] = IL-6 stimulation, CD4+ T cells and monocytes, whole blood

Question: For “ipilimumab: fully human monoclonal antibody that blocks cytotoxic T-lymphocyte-associated antigen 4 (CTLA-4)-mediated T-cell suppression”, which “IL-15→p-STAT5 signaling in post-treatment samples” value [1] is on record?
Answer: diminished

Question: What about the “IL-15→p-STAT5 signaling in post-treatment samples” value ([1]; listed as Ipilimumab) of the same substance?
Answer: reduced IL-15→p-STAT5 signaling

Question: What about the “TCR→p-Erk, TCR→p-CD3z signaling in post-treatment samples” value ([1]; CD45RA+ but not CD45RA− CD4+ and CD4− subsets, vs healthy donors and pre-treatment melanoma samples) of the same substance?
Answer: diminished

Question: What about the CTLA-4 upregulation [2] of the same substance?
Answer: augmented

Question: What about the “cytokine production (IL-2, TNF-α)” value [2] of the same substance?
Answer: augmented

Question: And the “proliferation (Cyclin A2)” value [2]?
Answer: augmented

Question: And the “hazard ratio for death” value [3]?
Answer: 0.66

Question: Which GM-CSF→p-STAT5 signal termination ([4]; monocytes, neutrophils maintained persistent p-STAT5) does the source give for GM-CSF: cytokine modulator here?
Answer: efficient signal termination in monocytes

Question: For IFN-α, which “activation of p-Stat4” value ([5]; PBMC subsets) is on record?
Answer: detected in T cell subsets (both CD4+ and CD4− T cells), but not in monocytes or B cells

Question: And the “time of peak response for activation of p-Stat4, p-Stat6, p-p38” value ([5]; majority of cell types, PBMC)?
Answer: 1 h

Question: And the “time of peak response for activation of p-Stat1, p-Stat3, p-Stat5” value ([5]; most cell types, PBMC)?
Answer: 15 min

Question: And the “time of peak activation of all 3 STAT proteins” value ([4]; IFN-α stimulation, all cell subsets)?
Answer: 10 min

Question: And the “signaling resolution in monocytes” value ([4]; IFN-α, signal sustained in all other subsets)?
Answer: almost complete at 45 minutes

Question: Which results are given for IL-6: cytokine modulator?
Answer: time at which signal resolution fell to baseline levels ([4]; IL-6, monocytes (CD4+ T cells sustained)): 45 min; time of peak p-STAT1 and p-STAT5 [4, 9]: 10 to 15 min; time of peak p-STAT3 levels [4, 9]: 3 min; IL-6 induced activation in neutrophils ([4]; compared to CD4+ T cells and monocytes): very low; cell subsets showing induced signaling ([4]; whole blood, six cell populations): only observed in CD4+ T cells and monocytes

Question: For “Keytruda: checkpoint blockade agent that reduces communication through the PD-1 pathway”, which “effect on TCR signaling (p-ERK and p-AKT readouts)” value ([6]; PD-1 negative (low PD-1 expression)) is on record?
Answer: no effect

Question: And the “effect on TCR signaling (p-ERK and p-AKT readouts)” value ([6]; PD-1 positive (high expression) T cells)?
Answer: clear trend toward an increase in signaling; also recorded: increased TCR→AKT and p-ERK

Question: For “Fresolimumab: anti-TGF, a TGFb inhibitor”, which “in vitro Fresolimumab activity” value [7] is on record?
Answer: weak

Question: What about the response to therapy ([8]; Fresolimumab in combination with radiotherapy) of the same substance?
Answer: poor

Question: What about the “PD-L1 expression in NK cells over the course of treatment” value ([8]; breast cancer patients' PBMC) of the same substance?
Answer: trend was observed toward increasing PD-L1 expression

Question: And the “TIM-3 expression in monocytes with treatment” value ([8]; breast cancer patients' PBMC)?
Answer: decrease in TIM-3 expression

Question: And the “IMR expression patterns by dose” value ([8]; higher dose (1 or 10 mg/kg IV) of Fresolimumab, patient PBMC)?
Answer: trend toward higher IMR expression patterns

Question: What about the “TCR mediated signaling by dose” value ([8]; higher dose of Fresolimumab, patient PBMC) of the same substance?
Answer: trend toward reduced TCR mediated signaling
